In patent US6723753B2, “Substituted n-benzyl-n-phenyl aminoalcohol compounds useful for inhibiting cholesteryl ester transfer protein activity” (Pharmacia Corporation, priority 2002, dated 2004):
pIC50: −log10 of the molar value.

Legend:
CETP [1] = molecular target: T1, CETP (Homo sapiens, UniProt P11597); assay: Assay of CETP Inhibition using Purified Components (Reconstituted Buffer Assay); type: biochemical; set-up: made in house; host or cells: CHO cells (serum-free conditioned medium)
T1 sequence (P11597 18-493): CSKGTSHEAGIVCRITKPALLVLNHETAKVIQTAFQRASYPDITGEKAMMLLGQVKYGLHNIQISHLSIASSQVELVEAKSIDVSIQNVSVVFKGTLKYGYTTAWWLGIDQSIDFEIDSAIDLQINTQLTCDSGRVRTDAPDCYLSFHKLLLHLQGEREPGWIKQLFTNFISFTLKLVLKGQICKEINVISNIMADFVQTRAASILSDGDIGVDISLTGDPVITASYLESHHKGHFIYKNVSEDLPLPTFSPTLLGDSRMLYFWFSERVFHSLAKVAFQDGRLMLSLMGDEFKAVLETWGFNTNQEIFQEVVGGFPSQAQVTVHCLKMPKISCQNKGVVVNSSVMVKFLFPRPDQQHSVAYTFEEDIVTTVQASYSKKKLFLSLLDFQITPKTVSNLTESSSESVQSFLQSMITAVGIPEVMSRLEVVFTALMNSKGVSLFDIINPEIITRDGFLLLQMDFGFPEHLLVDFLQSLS
Outline: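 Transfer of radiolabeled cholesteryl ester from HDL to LDL was run for 2 h at 37 °C in pH 7.4 Tris buffer with 1% BSA, using purified CHO-expressed human CETP. Precipitated LDL radioactivity, measured by scintillation after dextran sulfate/MgCl2 precipitation and filtration, yielded the IC50.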

CETP [2] = molecular target: T1, CETP; assay: Assay of CETP Inhibition in Human Plasma; type: biochemical; set-up: Blood was obtained from healthy volunteers, recruited from the personnel of Monsanto Company; from tissue; host or cells: human EDTA plasma pool from healthy volunteers; conditions: Inhibition of CETP activity in human plasma assay; transfer of [3H]CE from HDL to VLDL and LDL; read-out: IC50
Experimental: Assay of CETP Inhibition in Human Plasma
Blood was obtained from healthy volunteers, recruited from the personnel of Monsanto Company, Saint Louis, Mo. Blood was collected in tubes containing EDTA (EDTA plasma pool). The EDTA human plasma pool, previously stored at −20° C., was thawed at room temperature and centrifuged for 5 minutes to remove any particulate matter. […] Equal volumes (396 μL) of the plasma containing the [^3H]CE-HDL were added by pipette into micro tubes (Titertube®, Bio-Rad laboratories, Hercules, Calif.). Inhibitor compounds, dissolved as 20-50 mM stock solutions in DMSO, were serially diluted in DMSO (or an alternative solvent in some cases, such as dimethylformamide or ethanol). Four μL of each of the serial dilutions of inhibitor compounds or DMSO alone were then added to each of the tubes containing plasma (396 μL). After mixing, triplicate aliquots (100 μL) from each plasma tube were then transferred to wells of 96-well round-bottomed polystyrene microtiter plates (Corning, Corning, N.Y.). Plates were sealed with plastic film and incubated at 37° C. for 4 hours. “Test” samples contained plasma with dilutions of inhibitor compounds. “Control” samples contained plasma with DMSO diluted to the same concentration as the test samples, but without inhibitor. “Blank” samples were prepared as “control” samples, but were left in the micro tubes at 4° C. for the 4 hour incubation and were then added to the microtiter wells at the end of the incubation period. VDL and LDL were precipitated by the addition of 10 μL of precipitating reagent (1% (w/v) dextran sulfate (Dextralip50)/0.5 M magnesium chloride, pH 7.4) to all wells. The wells were mixed on a plate mixer and then incubated at ambient temperature for 10 min. The plates were then centrifuged at 1000× g for 30 min at 10° C. The supernatants (50 μL) from each well were then transferred to Picoplate™ 96 plate wells (Packard, Meriden, Conn.) containing Microscint™-40 (Packard, Meriden, Conn.). The plates were heat-sealed (TopSeal™-P, Packard, Meriden, Conn.) according to the manufacturer's directions and mixed for 30 min. Radioactivity was measured on a microplate scintillation counter (TopCount, Packard, Meriden, Conn.). The maximum percentage transfer in the control wells (% transfer) was determined using the following equation: [formula]
The percentage of transfer relative to the control (% control) was determined in the wells containing inhibitor compounds was determined as follows: [formula]
IC50 values were then calculated from plots of % control versus concentration of inhibitor compound.

[3] = Inhibition of CETP activity in reconstituted buffer assay, transfer of [3H]CE from HDL to LDL, read-out: IC50

Compound	pIC50 (CETP [1]; [3])	pIC50 (CETP [2])	pIC50 (CETP [1])	pIC50 (CETP [1]; IC50, Inhibition of CETP activity in reconstituted buffer assay, transfer of [3H]CE from HDL to LDL)
Cc1ccc([N+](=O)[O-])cc1Oc1cccc(N(Cc2cccc(OC(F)(F)C(F)F)c2)CC(O)C(F)(F)F)c1 (stereo not drawn) [Example 447]	5.01	< 4.30	–	–
COC(=O)C=CCOc1cccc(N(Cc2cccc(OC(F)(F)C(F)F)c2)CC(O)C(F)(F)F)c1 (stereo not drawn) [Example 499]	6.08	4.47	–	–
OC(CN(Cc1cccc(OC(F)(F)C(F)F)c1)c1cccc(-c2cccc(C(F)(F)F)c2)c1)C(F)(F)F (stereo not drawn) [Example 550, 1,1,1-trifluoro-3-[[[3-(1,1,2,2-tetrafluoroethoxy)phenyl]methyl][[3′-(trifluoromethyl)1,1′-biphenyl]-3-yl]amino]-2-propanol]	6.30	4.52	–	–
OC(CN(Cc1cccc(OC(F)(F)C(F)F)c1)c1cccc(-c2ccc(F)c(Cl)c2)c1)C(F)(F)F (stereo not drawn) [Example 554]	6.12	4.74	–	–
O=[N+]([O-])c1cccc(-c2cccc(N(Cc3cccc(OC(F)(F)C(F)F)c3)CC(O)C(F)(F)F)c2)c1 (stereo not drawn) [Example 556]	6.04	4.31	–	–
OC(CN(Cc1cccc(OC(F)(F)C(F)F)c1)c1cccc(-c2cc(Cl)cc(Cl)c2)c1)C(F)(F)F (stereo not drawn) [Example 557]	6.06	4.47	–	–
OC(CN(Cc1cccc(OC(F)(F)C(F)F)c1)c1cccc(-c2ccc(F)c(F)c2F)c1)C(F)(F)F (stereo not drawn) [Example 560]	6.00	4.96	–	–
OC(CN(Cc1cccc(-c2cccs2)c1)c1cccc(Oc2ccccc2)c1)C(F)(F)F (stereo not drawn) [Example 595, 3-[(3-phenoxyphenyl) [[3-(2-thienyl)phenyl]methyl]amino]-1,1,1-trifluoro-2-propanol]	5.96	4.38	–	–
OC(CN(Cc1cccc(Br)c1)c1cccc(Oc2ccccc2)c1)C(F)(F)F (stereo not drawn) [Example 595B, 3-[(3-phenoxyphenyl)[[3-bromophenyl]methyl]amino]-1,1,1-trifluoro-2-propanol]	5.35	< 4.00	–	–
OC(COc1cccc(CN(CC(O)C(F)(F)F)c2cccc(Oc3ccccc3)c2)c1)C(F)(F)F (stereo not drawn) [Example 655, 3-[(3-phenoxyphenyl)[[3-(2-hydroxy-3,3,3-trifluoro-n-propoxy)phenyl]methyl]amino]-1,1,1-trifluoro-2-propanol]	5.44	4.32	–	–
OC(COc1cccc(CN(CC(O)C(F)(F)F)c2cccc(Oc3ccc(F)cc3)c2)c1)C(F)(F)F (stereo not drawn) [Example 655B, 3-[3-(4-fluorophenoxy)phenyl[[3-(2-hydroxy-3,3,3-trifluoro-n-propoxy)phenyl]methyl]amino]-1,1,1-trifluoro-2-propanol]	5.89	4.20	–	–
CC(=O)OC(CN(Cc1cccc(C(F)(F)F)c1)c1cccc(F)c1)C(F)(F)F (stereo not drawn) [Example 664, 2,2,2-trifluoro-1-[[(3-fluorophenyl)[3-(trifluoromethyl)phenyl]-methyl]amino]methyl]ethyl Acetate]	–	< 3.70	4.15	–
COc1ccc(CN(CC(O)C(F)(F)F)c2cccc(Oc3ccccc3)c2)cc1 (stereo not drawn) [Example 686]	4.82	< 4.00	–	–
OC(CN(Cc1cccc(C(F)(F)F)c1)c1cccc(OC(F)(F)F)c1)C(F)(F)F (stereo not drawn) [Example 688]	5.60	< 4.00	–	–
OC(CN(Cc1cccc(Oc2ccccc2)c1)c1cc(C(F)(F)F)cc(C(F)(F)F)c1)C(F)(F)F (stereo not drawn) [Example 690]	5.60	4.12	–	–
OC(CN(Cc1cccc(C(F)(F)F)c1)c1cc(C(F)(F)F)ccc1C(F)(F)F)C(F)(F)F (stereo not drawn) [Example 691]	5.52	< 4.00	–	–
OC(CN(Cc1cccc(SC(F)(F)F)c1)c1cccc(Oc2ccccc2)c1)C(F)(F)F (stereo not drawn) [compound 216]	–	4.62	–	6.41
O=S(=O)(c1ccccc1)c1cccc(N(Cc2cccc(OC(F)(F)C(F)F)c2)CC(O)C(F)(F)F)c1 (stereo not drawn) [compound 218]	6.04	4.51	–	–
OC(CN(Cc1cccc(OC(F)(F)C(F)F)c1)c1cccc(N2CCCCC2)c1)C(F)(F)F (stereo not drawn) [compound 315]	5.68	< 4.00	–	–
OC(CN(Cc1ccc(F)c(-c2ccco2)c1)c1cccc(Oc2ccccc2)c1)C(F)(F)F (stereo not drawn) [compound 593]	6.11	4.31	–	–
OC(CN(Cc1cccc(OC(F)(F)F)c1)c1ccc2c(c1)Cc1ccccc1-2)C(F)(F)F (stereo not drawn) [compound 699]	5.82	4.26	–	–

Further lines, with some results ahead:

pIC50 (CETP [1]; [3])	pIC50 (CETP [2])	Compound	pIC50 (CETP [1])	pIC50 (CETP [1]; IC50, Inhibition of CETP activity in reconstituted buffer assay, transfer of [3H]CE from HDL to LDL)
6.43	4.80	CC(C)Sc1cccc(N(Cc2cccc(OC(F)(F)C(F)F)c2)CC(O)C(F)(F)F)c1 (stereo not drawn) [Example 473, 3-[[3-[(1-methylethyl)thio]phenyl][[3-(1,1,2,2-tetrafluoroethoxy)phenyl]-methyl]amino]-1,1,1-trifluoro-2-propanol]	–	–
6.19	4.43	O=[N+]([O-])c1ccc(Sc2cccc(N(Cc3cccc(OC(F)(F)C(F)F)c3)CC(O)C(F)(F)F)c2)cc1 (stereo not drawn) [Example 475]	–	–
6.48	5.06	CC(C)Oc1cccc(N(Cc2cccc(OC(F)(F)C(F)F)c2)CC(O)C(F)(F)F)c1 (stereo not drawn) [Example 489]	–	–
6.16	4.42	COc1ccc(-c2cccc(N(Cc3cccc(OC(F)(F)C(F)F)c3)CC(O)C(F)(F)F)c2)cc1 (stereo not drawn) [Example 558]	–	–
6.25	5.10	OC(CN(Cc1cccc(OC(F)(F)C(F)F)c1)c1cccc(-c2ccc(F)c(F)c2)c1)C(F)(F)F (stereo not drawn) [Example 559]	–	–
7.27	5.47	OC(CN(Cc1cccc(OC(F)(F)C(F)F)c1)c1cccc(Oc2cc(F)ccc2Br)c1)C(F)(F)F (stereo not drawn) [Example 629, 3-[[3-(2-bromo-5-fluorophenoxy)phenyl][[3-(1,1,2,2-tetrafluoro-ethoxy)phenyl]methyl]amino]-1,1,1-trifluoro-2-propanol]	–	–
7.30	5.74	OC(CN(Cc1cccc(OC(F)(F)C(F)F)c1)c1cccc(Oc2cc(Br)ccc2F)c1)C(F)(F)F (stereo not drawn) [Example 630, 3-[[3-(-5-bromo-2-fluorophenoxy)phenyl][[3-(1,1,2,2-tetrafluoro-ethoxy)phenyl]methyl]amino]-1,1,1-trifluoro-2-propanol]	–	–
6.17	4.92	CC(C)(C)Oc1cccc(CN(CC(O)C(F)(F)F)c2cccc(Oc3ccccc3)c2)c1 (stereo not drawn) [Example 654, 3-[(3-phenoxyphenyl)[[3-(1,1-dimethylethoxy)phenyl]methyl]amino]-1,1,1-trifluoro-2-propanol]	–	–
7.40	5.96	CCc1cc(Oc2cccc(N(Cc3cccc(C(F)(F)C(F)(F)F)c3)CC(O)C(F)(F)F)c2)ccc1Cl (stereo not drawn) [Example 660, 3-[(4-chloro-3-ethylphenoxy)phenyl[[3-(pentafluoroethyl)phenyl]methyl]-amino]-1,1,1-trifluoro-2-propanol.]	–	–
